Data published in publication PMC8471537, “Novel Coumarin-Thiadiazole Hybrids and Their Cu(II) and Zn(II) Complexes as Potential Antimicrobial Agents and Acetylcholinesterase Inhibitors” (International Journal of Molecular Sciences, 2021).

Molecular target: Acetylcholinesterase (AChE; E.C. 3.1.1.7) from Electrophorus electricus (Electrophorus electricus, UniProt O42275)
Test: Ellman assay, absorbance at […] nm
Format: biochemical

Acetylcholinesterase (AChE; E.C. 3.1.1.7) from Electrophorus electricus, sequence (O42275 24-633): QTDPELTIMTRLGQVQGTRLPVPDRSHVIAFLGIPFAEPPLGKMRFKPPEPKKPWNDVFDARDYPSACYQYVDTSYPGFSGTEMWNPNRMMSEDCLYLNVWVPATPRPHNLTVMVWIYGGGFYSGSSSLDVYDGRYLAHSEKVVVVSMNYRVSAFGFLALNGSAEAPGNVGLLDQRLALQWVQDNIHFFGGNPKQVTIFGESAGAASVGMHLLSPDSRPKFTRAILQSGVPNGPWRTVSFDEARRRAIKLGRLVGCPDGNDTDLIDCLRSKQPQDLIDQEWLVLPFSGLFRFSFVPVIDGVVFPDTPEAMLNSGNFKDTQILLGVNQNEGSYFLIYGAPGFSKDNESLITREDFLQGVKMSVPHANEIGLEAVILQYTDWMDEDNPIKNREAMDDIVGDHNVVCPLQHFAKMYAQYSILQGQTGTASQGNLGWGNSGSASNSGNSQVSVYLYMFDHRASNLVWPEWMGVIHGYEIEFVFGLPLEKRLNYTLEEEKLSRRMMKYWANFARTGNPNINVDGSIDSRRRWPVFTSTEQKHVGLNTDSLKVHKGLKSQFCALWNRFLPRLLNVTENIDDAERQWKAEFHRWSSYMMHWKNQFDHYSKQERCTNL

SMILES | IC50 [µM]
Cc1cc(=O)oc2c(-c3nnc(N)s3)c(O)ccc12 [compound 2, 2] | 0.218 ± 0.0084
CNc1nnc(-c2c(O)ccc3c(C)cc(=O)oc23)s1 [compound 3, 3] | 0.211 ± 0.0123
CC(=O)Nc1nnc(-c2c(O)ccc3c(C)cc(=O)oc23)s1 [compound 4, 4] | 0.181 ± 0.0123
Cc1cc(=O)oc2c(-c3nnc(Nc4ccccc4)s3)c(O)ccc12 [compound 5, 5] | 0.299 ± 0.0194
